This test concerns the target T1, Mitogen-activated protein kinase kinase kinase 5 (Homo sapiens, UniProt Q99683).
T1 sequence (Q99683 whole entry): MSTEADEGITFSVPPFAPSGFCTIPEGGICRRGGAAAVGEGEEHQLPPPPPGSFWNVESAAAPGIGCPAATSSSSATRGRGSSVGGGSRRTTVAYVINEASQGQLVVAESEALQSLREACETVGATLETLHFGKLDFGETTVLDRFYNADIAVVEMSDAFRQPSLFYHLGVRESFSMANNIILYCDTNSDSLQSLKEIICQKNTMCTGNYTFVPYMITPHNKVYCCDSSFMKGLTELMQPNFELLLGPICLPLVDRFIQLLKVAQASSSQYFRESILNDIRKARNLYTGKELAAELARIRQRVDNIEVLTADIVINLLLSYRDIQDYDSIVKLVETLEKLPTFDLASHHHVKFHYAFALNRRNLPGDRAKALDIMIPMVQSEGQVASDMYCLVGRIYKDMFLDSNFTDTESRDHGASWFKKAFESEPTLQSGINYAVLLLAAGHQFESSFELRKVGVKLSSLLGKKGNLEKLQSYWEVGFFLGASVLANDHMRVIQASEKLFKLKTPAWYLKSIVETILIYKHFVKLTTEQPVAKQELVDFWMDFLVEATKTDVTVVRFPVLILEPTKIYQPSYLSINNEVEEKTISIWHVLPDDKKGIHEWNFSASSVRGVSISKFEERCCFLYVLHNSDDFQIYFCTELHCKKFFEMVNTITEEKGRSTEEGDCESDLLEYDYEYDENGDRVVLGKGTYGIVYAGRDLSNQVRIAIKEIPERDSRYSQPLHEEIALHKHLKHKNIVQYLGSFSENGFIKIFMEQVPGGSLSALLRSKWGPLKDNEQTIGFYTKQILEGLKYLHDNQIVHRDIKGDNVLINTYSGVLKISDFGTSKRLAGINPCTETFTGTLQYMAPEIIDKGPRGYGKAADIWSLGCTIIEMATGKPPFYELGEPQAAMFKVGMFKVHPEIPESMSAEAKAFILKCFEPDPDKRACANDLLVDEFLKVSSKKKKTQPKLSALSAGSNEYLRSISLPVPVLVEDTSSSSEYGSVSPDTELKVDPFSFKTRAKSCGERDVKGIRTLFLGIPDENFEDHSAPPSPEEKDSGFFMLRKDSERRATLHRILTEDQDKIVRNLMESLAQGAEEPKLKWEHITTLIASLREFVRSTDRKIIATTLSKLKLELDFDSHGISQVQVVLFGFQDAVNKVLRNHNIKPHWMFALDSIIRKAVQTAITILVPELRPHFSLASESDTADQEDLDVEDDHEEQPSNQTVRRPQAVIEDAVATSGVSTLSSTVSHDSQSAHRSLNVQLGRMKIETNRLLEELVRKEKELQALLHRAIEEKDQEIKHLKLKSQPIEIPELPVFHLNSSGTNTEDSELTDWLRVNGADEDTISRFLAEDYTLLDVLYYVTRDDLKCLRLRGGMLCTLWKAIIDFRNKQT
As to the kind of experiment: HTRF KinEASE Assay : HTRF KinEASE-STK is a generic method for measuring serine/threonine kinase activities using a time-resolved fluorescence resonance energy transfer (TR-FRET) immunoassay. The IC50 value for each compound was determined in the presence of compound (various concentration from 0 to 10 μM) and a fixed amount of ATP and peptide substrates. The test compound, 1 Um STK3 peptide substrate, and 5 Nm of ASK1 kinase are incubated with kinase reaction buffer containing 50 Mm HEPES Ph 7.5, 0.01% BRIJ-35, 10 Mm MgCl2, and 1 Mm EGTA for 30 minutes. 100 Um ATP is added to start kinase reaction and incubated for 3 hours. The STK3-antibody labeled with Eu3+-Cryptate and 125 Nm streptavidin-XL665 are mixed in a single addition with stop reagents provided by the Cisbio kit used to stop the kinase reaction. Fluorescence is detected using an Envision Multilabeled 2014 reader from PerkinElmer. The Fluorescence is measured at 615 nm (Cryptate) and 665 nm (XL665) and a ratio of 665 nm/615 nm is calculated for each well.

pIC50: −log10 of the molar value.

By pIC50 is commonly meant the negative decadic logarithm of the IC50, by convention in mol/L.

As to `CCOC(=O)N1Cc2cnc(C(=O)Nc3cccc(-c4nncn4C(C)C)n3)cc2C1`, the pIC50 is 7.00 to 8.00.

Source of the values: ChEMBL document CHEMBL5727375, “Apoptosis signal-regulating kinase 1 inhibitors and methods of use thereof” (2019).
